This is an account of results in patent US8987314B2, “Amide, urea or sulfone amide linked benzothiazole inhibitors of endothelial lipase” (Bristol-Myers Squibb Company, priority 2012, dated 2015).

Each structure is given as a SMILES string.

For one experiment, the target named is Endothelial lipase (EL) (Homo sapiens (Human), UniProt Q9Y5X9). Briefly: EL assay: endothelial lipase activity with fluorescent substrate A10070 in DMPG vesicles. Type of experiment: biochemical. The essentials:
(§1)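 Substrate A10070 sits in sonicated DMPG vesicles at 0.11 mole fraction. Lipase and compound preincubated 30 min, 37° C, in HEPES pH 8.0 buffer with CaCl2.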

A further experiment addresses hepatic lipase (HL) (Homo sapiens (Human), UniProt P11150). Briefly: HL assay: hepatic lipase activity with fluorescent substrate A10070 in DMPG vesicles. Type of experiment: biochemical. The essentials:
as §1

Sequence of hepatic lipase (HL) (P11150 23-499, species assumed): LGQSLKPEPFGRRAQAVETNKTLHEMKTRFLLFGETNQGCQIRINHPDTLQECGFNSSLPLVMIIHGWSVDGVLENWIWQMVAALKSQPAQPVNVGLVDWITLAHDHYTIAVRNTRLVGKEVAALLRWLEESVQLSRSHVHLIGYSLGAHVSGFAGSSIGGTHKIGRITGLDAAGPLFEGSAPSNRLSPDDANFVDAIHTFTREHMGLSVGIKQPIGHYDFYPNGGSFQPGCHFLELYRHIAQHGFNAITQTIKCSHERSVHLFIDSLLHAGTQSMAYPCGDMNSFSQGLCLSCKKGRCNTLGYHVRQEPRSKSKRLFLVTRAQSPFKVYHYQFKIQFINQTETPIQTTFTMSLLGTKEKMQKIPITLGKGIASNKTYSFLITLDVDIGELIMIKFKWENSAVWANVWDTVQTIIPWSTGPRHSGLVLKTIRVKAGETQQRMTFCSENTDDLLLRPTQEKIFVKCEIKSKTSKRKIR
Sequence of Endothelial lipase (EL) (Q9Y5X9 21-500): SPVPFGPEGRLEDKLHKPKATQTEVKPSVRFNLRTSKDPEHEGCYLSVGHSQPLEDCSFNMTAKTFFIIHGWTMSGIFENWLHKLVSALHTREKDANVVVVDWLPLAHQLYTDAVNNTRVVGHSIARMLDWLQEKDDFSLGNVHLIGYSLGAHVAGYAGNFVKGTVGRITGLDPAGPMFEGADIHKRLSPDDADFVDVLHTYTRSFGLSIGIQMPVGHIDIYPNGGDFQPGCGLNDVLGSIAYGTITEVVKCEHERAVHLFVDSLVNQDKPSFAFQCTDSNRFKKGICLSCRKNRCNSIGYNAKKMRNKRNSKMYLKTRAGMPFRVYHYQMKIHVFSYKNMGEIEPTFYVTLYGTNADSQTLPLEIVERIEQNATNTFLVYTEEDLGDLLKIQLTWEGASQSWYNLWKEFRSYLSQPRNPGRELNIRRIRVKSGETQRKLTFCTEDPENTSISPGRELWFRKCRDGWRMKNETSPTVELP

The IC50 is the concentration needed to halve the response being measured. Regarding `NS(=O)(=O)CCNC(=O)C(c1nc2ccc(-c3cncnc3)cc2s1)S(=O)(=O)CCN1CCOCC1` (stereo not drawn) [Example B315, 2-[2-(morpholin-4-yl)ethanesulfonyl]-2-[6-(pyrimidin-5-yl)-1,3-benzothiazol-2-yl]-N-(2-sulfamoylethyl)acetamide], the half-maximal inhibitory concentration (IC50) against Endothelial lipase (EL) worked out at 55.6 nM; against hepatic lipase (HL), 10000 nM.

Turning to `NS(=O)(=O)CCNC(=O)C(c1nc2ccc(-c3ccc(C(F)(F)F)nc3)cc2s1)S(=O)(=O)CCN1CCOCC1` (stereo not drawn) [Example B316, 2-[2-(morpholin-4-yl)ethanesulfonyl]-N-(2-sulfamoylethyl)-2-{6-[6-(trifluoromethyl)pyridin-3-yl]-1,3-benzothiazol-2-yl}acetamide], the results for the IC50 on Endothelial lipase (EL) and at hepatic lipase (HL) were 145 nM and 399 nM, respectively.

For the compound `CS(=O)(=O)C(C(=O)NCCS(N)(=O)=O)c1nc2ccc(-c3cnn(CCC4CCOCC4)c3)cc2s1` (stereo not drawn) [Example B317, 2-methanesulfonyl-2-(6-{1-[2-(oxan-4-yl)ethyl]-1H-pyrazol-4-yl}-1,3-benzothiazol-2-yl)-N-(2-sulfamoylethyl)acetamide], the IC50 at Endothelial lipase (EL) turned out to be 13 nM; against hepatic lipase (HL), 391 nM.

`CC1(O)CN(C(=O)c2ccc(-c3ccc4nc(C(C(=O)NCCS(N)(=O)=O)S(C)(=O)=O)sc4c3)cc2)C1` (stereo not drawn) [Example B318, 2-{6-[4-(3-hydroxy-3-methylazetidine-1-carbonyl)phenyl]-1,3-benzothiazol-2-yl}-2-methanesulfonyl-N-(2-sulfamoylethyl)acetamide]: the results for the IC50 on Endothelial lipase (EL) and at hepatic lipase (HL) were 1.8 nM and 911 nM, respectively.

As to `CC1(O)CN(C(=O)c2ccc(-c3ccc4sc(C(C(=O)NCCS(N)(=O)=O)S(C)(=O)=O)nc4c3)cc2)C1` (stereo not drawn) [Example B319, 2-{5-[4-(3-hydroxy-3-methylazetidine-1-carbonyl)phenyl]-1,3-benzothiazol-2-yl}-2-methanesulfonyl-N-(2-sulfamoylethyl)acetamide], the IC50 against Endothelial lipase (EL) was determined as 4.8 nM; at hepatic lipase (HL), 1000 nM.

On to `CC1(O)CN(C(=O)c2ccc(-c3ccc4nc(C(C(=O)NCCS(N)(=O)=O)S(=O)(=O)CCC(F)(F)F)sc4c3)cc2)C1` (stereo not drawn) [Example B320, 2-{6-[4-(3-hydroxy-3-methylazetidine-1-carbonyl)phenyl]-1,3-benzothiazol-2-yl}-N-(2-sulfamoylethyl)-2-(3,3,3-trifluoropropanesulfonyl)a-cetamide], for which the IC50 against Endothelial lipase (EL) came out at 1.9 nM; at hepatic lipase (HL), 1260 nM.

In the case of `CS(=O)(=O)C(C(=O)NCCS(N)(=O)=O)c1nc2cc(-c3ccc(C(=O)N4CC(F)(F)C4)cc3)ccc2s1` (stereo not drawn) [Example B321, 2-{5-[4-(3,3-difluoroazetidine-1-carbonyl)phenyl]-1,3-benzothiazol-2-yl}-2-methanesulfonyl-N-(2-sulfamoylethyl)acetamide], the results for the IC50 against Endothelial lipase (EL) and against hepatic lipase (HL) were 0.6 nM and 175 nM, respectively.

`CC1(O)CN(C(=O)c2ccc(-c3ccc4nc(C(C(=O)NCCS(N)(=O)=O)S(=O)(=O)Cc5ccc(C(F)(F)F)cc5)sc4c3)cc2)C1` (stereo not drawn) [Example B322, 2-{6-[4-(3-hydroxy-3-methylazetidine-1-carbonyl)phenyl]-1,3-benzothiazol-2-yl}-N-(2-sulfamoylethyl)-2-{[4-(trifluoromethyl)phen-yl]methanesulfonyl}a-cetamide]: the figures for the IC50 against Endothelial lipase (EL) and at hepatic lipase (HL) were 2.4 nM and 37.4 nM, respectively.

As for `CC1(O)CN(C(=O)c2ccc(-c3ccc4nc(C(C(=O)NCCS(N)(=O)=O)S(=O)(=O)Cc5ccc(OC(F)(F)F)cc5)sc4c3)cc2)C1` (stereo not drawn) [Example B323, 2-{6-[4-(3-hydroxy-3-methylazetidine-1-carbonyl)phenyl]-1,3-benzothiazol-2-yl}-N-{2-sulfamoylethyl)-2-{[4-(trifluoromethoxy)phen-yl]methanesulfonyl}a-cetamide], the concentration for half-maximal inhibition (IC50) against Endothelial lipase (EL) was found to be 2.6 nM; against hepatic lipase (HL) it was 81.7 nM.

In the case of `NS(=O)(=O)CCNC(=O)C(c1nc2ccc(-c3ccc(C(=O)N4CCC(F)(F)C4)cc3)cc2s1)S(=O)(=O)Cc1ccc(OC(F)(F)F)cc1` (stereo not drawn) [Example B324, 2-{6-[4-(3,3-difluoropyrrolidine-1-carbonyl)phen-yl]-1,3-benzothiazol-2-yl}-N-(2-sulfamoyl-ethyl)-2-{[4-(trifluoro-methoxy)phen-yl]methanesulfonyl}a-cetamide], the IC50 at Endothelial lipase (EL) came out at 9.1 nM; against hepatic lipase (HL) it was 58.1 nM.

As to `Cc1cc2nc(C(C(=O)NCCS(N)(=O)=O)S(=O)(=O)Cc3ccccc3)sc2cc1-c1ccc(C(=O)O)cc1` (stereo not drawn) [Example B325, 4-(5-methyl-2-{phen-ylmethanesulfonyl[(2-sulfa-moylethyl)carbamoyl]meth-yl}-1,3-benzothiazol-6-yl)benzoic acid], the IC50 against Endothelial lipase (EL) was 1.2 nM; against hepatic lipase (HL), 104 nM.

With `Cc1cc2nc(C(C(=O)NCCS(N)(=O)=O)S(C)(=O)=O)sc2cc1-c1ccc(C(=O)O)cc1` (stereo not drawn) [Example B326, 4-(2-{methanesulfonyl[(2-sulfamoylethyl)carba-moyl]methyl}-5-methyl-1,3-benzothiazol-6-yl)benzoic acid], the IC50 came out at 1.6 nM against Endothelial lipase (EL) and 201 nM against hepatic lipase (HL).

Take `CS(=O)(=O)C(C(=O)NCCS(N)(=O)=O)c1nc2ccc(-c3ccc(C(=O)N4CC[C@H](O)C4)cc3)cc2s1` (stereo partly drawn) [Example B328, 2-(6-{4-[(3S)-3-hydroxypyrrolidine-1-carbonyl]phen-yl}-1,3-benzothiazol-2-yl)-2-methanesulfonyl-N-(2-sulfamoylethyl)a-cetamide]: the IC50 is 4 nM on Endothelial lipase (EL) and 2620 nM against hepatic lipase (HL).

For the compound `CS(=O)(=O)C(C(=O)NCCS(N)(=O)=O)c1nc2ccc(-c3ccc(C(=O)N4CC[C@@H](O)C4)cc3)cc2s1` (stereo partly drawn) [Example B329, 2-(6-{4-[(3R)-3-hydroxy-pyrrolidine-1-carbonyl]phen-yl}-1,3-benzothiazol-2-yl)-2-methanesulfonyl-N-(2-sulfamoylethyl)a-cetamide], the IC50 on Endothelial lipase (EL) was determined as 1.8 nM; on hepatic lipase (HL), 262 nM.

Consider `CS(=O)(=O)C(C(=O)NCCS(N)(=O)=O)c1nc2ccc(-c3ccc(C(=O)N4CC(F)C4)cc3)cc2s1` (stereo not drawn) [Example B330, 2-{6-[4-(3-fluoroazetidine-1-carbonyl)phenyl]-1,3-benzothiazol-2-yl}-2-methanesulfonyl-N-(2-sulfamoylethyl)acetamide], for which the IC50 is 0.7 nM at Endothelial lipase (EL) and 46.7 nM at hepatic lipase (HL).

Regarding `NC(=O)c1cccc(-c2ccc3nc(C(C(=O)NCCS(N)(=O)=O)S(=O)(=O)CCC(F)(F)F)sc3c2)c1` (stereo not drawn) [Example B331, 3-(2-{[(2-sulfamoylethyl)car-bamoyl](3,3,3-trifluoro-propanesulfonyl)methyl}-1,3-benzothiazol-6-yl)benzamide], the half-maximal inhibitory concentration (IC50) was 72.5 nM at Endothelial lipase (EL) and 214 nM against hepatic lipase (HL).

`NS(=O)(=O)CCNC(=O)C(c1nc2ccc(-c3cccc(C(=O)N4CCC(O)CC4)c3)cc2s1)S(=O)(=O)CCC(F)(F)F` (stereo not drawn) [Example B332, 2-{6-[3-(4-hydroxy-piperidine-1-carbonyl)phen-yl]-1,3-benzothiazol-2-yl}-N-(2-sulfamoyl-ethyl)-2-(3,3,3-trifluoro-propanesulfonyl)acetamide]: the IC50 amounted to 1.5 nM against Endothelial lipase (EL) and 136 nM against hepatic lipase (HL).

On to `NS(=O)(=O)CCNC(=O)C(c1nc2ccc(-c3cccc(C(=O)N4CCOCC4)c3)cc2s1)S(=O)(=O)CCC(F)(F)F` (stereo not drawn) [Example B333, 2-{6-[3-(morpholine-4-carbonyl)phenyl]-1,3-benzothiazol-2-yl}-N-(2-sulfamoylethyl)-2-(3,3,3-trifluoropropanesulfon-yl)acetamide], for which the half-inhibitory concentration (IC50) on Endothelial lipase (EL) was found to be 9.8 nM; on hepatic lipase (HL) it was 119 nM.

As to `NS(=O)(=O)CCNC(=O)C(c1nc2ccc(-c3cccc(C(=O)N4CC(F)(F)C4)c3)cc2s1)S(=O)(=O)CCC(F)(F)F` (stereo not drawn) [Example B334, 2-{6-[3-(3,3-difluoro-azetidine-1-carbonyl)phen-yl]-1,3-benzothiazol-2-yl}-N-(2-sulfamoyl-ethyl)-2-(3,3,3-trifluoro-propanesulfonyl)acetamide], the IC50 at Endothelial lipase (EL) was 14.2 nM; at hepatic lipase (HL) it was 60.4 nM.

As for `NS(=O)(=O)CCNC(=O)C(c1nc2ccc(-c3cccc(C(=O)N4CCCC(F)(F)C4)c3)cc2s1)S(=O)(=O)CCC(F)(F)F` (stereo not drawn) [Example B335, 2-{6-[3-(3,3-difluoro-piperidine-1-carbonyl)phen-yl]-1,3-benzothiazol-2-yl}-N-(2-sulfamoyl-ethyl)-2-(3,3,3-trifluoro-propanesulfonyl)acetamide], the values for the IC50 at Endothelial lipase (EL) and against hepatic lipase (HL) were 5.5 nM and 14.7 nM, respectively.

Take `NS(=O)(=O)CCNC(=O)C(c1nc2ccc(-c3cccc(C(=O)N4CC(F)C4)c3)cc2s1)S(=O)(=O)CCC(F)(F)F` (stereo not drawn) [Example B336, 2-{6-[3-(3-fluoroazetidine-1-carbonyl)phenyl]-1,3-benzothiazol-2-yl}-N-(2-sulfamoylethyl)-2-(3,3,3-trifluoropropanesulfonyl)a-cetamide]: the results for the half-maximal inhibitory concentration (IC50) at Endothelial lipase (EL) and on hepatic lipase (HL) were 8.2 nM and 22.6 nM, respectively.

Turning to `NS(=O)(=O)CCNC(=O)C(c1nc2ccc(-c3cccc(C(=O)NC4CCC4)c3)cc2s1)S(=O)(=O)CCC(F)(F)F` (stereo not drawn) [Example B337, N-cyclobutyl-3-(2-{[(2-sulfamoylethyl)carba-moyl](3,3,3-trifluoropropane-sulfonyl)methyl}-1,3-benzothiazol-6-yl)benzamide], the IC50 against Endothelial lipase (EL) was 6.8 nM; at hepatic lipase (HL), 28.4 nM.

`CN(CC(F)F)C(=O)c1cccc(-c2ccc3nc(C(C(=O)NCCS(N)(=O)=O)S(=O)(=O)CCC(F)(F)F)sc3c2)c1` (stereo not drawn) [Example B338, N-(2,2-difluoroethyl)-N-methyl-3-(2-{[(2-sulfamoylethyl)carba-moyl](3,3,3-trifluoropro-panesulfonyl)methyl}-1,3-benzothiazol-6-yl)benzamide]: the IC50 was 26.9 nM against Endothelial lipase (EL) and 99.7 nM at hepatic lipase (HL).

For the compound `CC(F)(F)CNC(=O)c1cccc(-c2ccc3nc(C(C(=O)NCCS(N)(=O)=O)S(=O)(=O)CCC(F)(F)F)sc3c2)c1` (stereo not drawn) [Example B339, N-(2,2-difluoropropyl)-3-(2-{[(2-sulfamoylethyl)car-bamoyl](3,3,3-trifluoropropanesulfon-yl)methyl}-1,3-benzothiazol-6-yl)benzamide], the values for the IC50 against Endothelial lipase (EL) and against hepatic lipase (HL) were 9.7 nM and 49.2 nM, respectively.
